Experimental data: ChEMBL document CHEMBL1151757, “Synthesis, radiosynthesis, and biological evaluation of fluorine-18-labeled 2beta-carbo(fluoroalkoxy)-3beta-(3'-((Z)-2-haloethenyl)phenyl)nortropanes: candidate radioligands for in vivo imaging of the serotonin transporter with positron emission tomography” (J Med Chem, 2008)

Key:
Thalamus [1] = assay: Drug uptake in anesthetized cynomolgus monkey brain thalamus after 6.5 mins postinjection; type: ADME, organism-based, Macaca fascicularis; parameters: unit not given here; settings: in vivo
Midbrain [2] = assay: Drug uptake in anesthetized cynomolgus monkey brain midbrain after 6.5 mins postinjection; type: ADME, organism-based, Macaca fascicularis; parameters: unit not given here; settings: in vivo
Midbrain [3] = assay: Drug uptake in anesthetized cynomolgus monkey brain midbrain after 55 mins postinjection; type: ADME, organism-based, Macaca fascicularis; parameters: unit not given here; settings: in vivo
Thalamus [4] = assay: Drug uptake in anesthetized cynomolgus monkey brain thalamus after 135 mins postinjection; type: ADME, organism-based, Macaca fascicularis; parameters: unit not given here; settings: in vivo, 2.25 h
Medulla [5] = assay: Drug uptake in anesthetized cynomolgus monkey brain medulla after 55 mins postinjection; type: ADME, organism-based, Macaca fascicularis; settings: in vivo
[6] = Ratio of drug uptake in pons to cerebellum in anesthetized cynomolgus monkey after 145 mins postinjection; type: ADME, organism-based, Macaca fascicularis; settings: in vivo
Midbrain [7] = assay: Drug uptake in anesthetized cynomolgus monkey brain midbrain after 185 mins postinjection; type: ADME, organism-based, Macaca fascicularis; settings: in vivo
Pons [8] = assay: Drug uptake in anesthetized cynomolgus monkey brain pons after 6.5 mins postinjection; type: ADME, organism-based, Macaca fascicularis; settings: in vivo
Medulla [9] = assay: Drug uptake in anesthetized cynomolgus monkey brain medulla after 175 mins postinjection; type: ADME, organism-based, Macaca fascicularis; settings: in vivo
Pons [10] = assay: Drug uptake in anesthetized cynomolgus monkey brain pons after 45 mins postinjection; type: ADME, organism-based, Macaca fascicularis; settings: in vivo, 0.75 h
[11] = Drug uptake in anesthetized cynomolgus monkey brain occipital lobe after 0.5 mins postinjection; type: ADME, organism-based, Macaca fascicularis; settings: in vivo
Pons [12] = assay: Drug uptake in anesthetized cynomolgus monkey brain pons after 2.5 mins postinjection; type: ADME, organism-based, Macaca fascicularis; settings: in vivo
Pons [13] = assay: Drug uptake in anesthetized cynomolgus monkey brain pons after 125 mins postinjection; type: ADME, organism-based, Macaca fascicularis; settings: in vivo
Pons [14] = assay: Drug uptake in anesthetized cynomolgus monkey brain pons after 4.5 mins postinjection; type: ADME, organism-based, Macaca fascicularis; settings: in vivo, 0.075 h
Putamen [15] = assay: Drug uptake in anesthetized cynomolgus monkey brain putamen after 6.5 mins postinjection; type: ADME, organism-based, Macaca fascicularis; parameters: unit not given here; settings: in vivo
Pons [16] = assay: Drug uptake in anesthetized cynomolgus monkey brain pons after 1.5 mins postinjection; type: ADME, organism-based, Macaca fascicularis; settings: in vivo, 0.025 h
[17] = Ratio of drug uptake in pons to cerebellum in anesthetized cynomolgus monkey after 95 mins postinjection; type: ADME, organism-based, Macaca fascicularis; settings: in vivo
Thalamus [18] = assay: Drug uptake in anesthetized cynomolgus monkey brain thalamus after 115 mins postinjection; type: ADME, organism-based, Macaca fascicularis; parameters: unit not given here; settings: in vivo
[19] = Drug uptake in anesthetized cynomolgus monkey brain frontal lobe after 235 mins postinjection; type: ADME, organism-based, Macaca fascicularis; settings: in vivo
[20] = Ratio of drug uptake in pons to cerebellum in anesthetized cynomolgus monkey after 195 mins postinjection; type: ADME, organism-based, Macaca fascicularis; settings: in vivo, 3.25 h
Caudate [21] = assay: Drug uptake in anesthetized cynomolgus monkey brain caudate after 2.5 mins postinjection; type: ADME, organism-based, Macaca fascicularis, Caudate nucleus; settings: in vivo
Midbrain [22] = assay: Drug uptake in anesthetized cynomolgus monkey brain midbrain after 125 mins postinjection; type: ADME, organism-based, Macaca fascicularis; parameters: unit not given here; settings: in vivo
Midbrain [23] = assay: Drug uptake in anesthetized cynomolgus monkey brain midbrain after 9.5 mins postinjection; type: ADME, organism-based, Macaca fascicularis; parameters: unit not given here; settings: in vivo
Pons [24] = assay: Drug uptake in anesthetized cynomolgus monkey brain pons after 55 mins postinjection; type: ADME, organism-based, Macaca fascicularis; settings: in vivo
Thalamus [25] = assay: Drug uptake in anesthetized cynomolgus monkey brain thalamus after 155 mins postinjection; type: ADME, organism-based, Macaca fascicularis; parameters: unit not given here; settings: in vivo
[26] = Ratio of drug uptake in occipital lobe to cerebellum in anesthetized cynomolgus monkey after 195 mins postinjection; type: ADME, organism-based, Macaca fascicularis; settings: in vivo, 3.25 h
Caudate [27] = assay: Drug uptake in anesthetized cynomolgus monkey brain caudate after 0.5 mins postinjection; type: ADME, organism-based, Macaca fascicularis, Caudate nucleus; settings: in vivo
Medulla [28] = assay: Drug uptake in anesthetized cynomolgus monkey brain medulla after 3.5 mins postinjection; type: ADME, organism-based, Macaca fascicularis; settings: in vivo
Medulla [29] = assay: Drug uptake in anesthetized cynomolgus monkey brain medulla after 105 mins postinjection; type: ADME, organism-based, Macaca fascicularis; settings: in vivo, 1.75 h
Medulla [30] = assay: Drug uptake in anesthetized cynomolgus monkey brain medulla after 18.5 mins postinjection; type: ADME, organism-based, Macaca fascicularis; settings: in vivo
Pons [31] = assay: Drug uptake in anesthetized cynomolgus monkey brain pons after 18.5 mins postinjection; type: ADME, organism-based, Macaca fascicularis; settings: in vivo
Putamen [32] = assay: Drug uptake in anesthetized cynomolgus monkey brain putamen after 75 mins postinjection; type: ADME, organism-based, Macaca fascicularis; parameters: unit not given here; settings: in vivo, 1.25 h
Midbrain [33] = assay: Drug uptake in anesthetized cynomolgus monkey brain midbrain after 145 mins postinjection; type: ADME, organism-based, Macaca fascicularis; settings: in vivo
Putamen [34] = assay: Drug uptake in anesthetized cynomolgus monkey brain putamen after 22.5 mins postinjection; type: ADME, organism-based, Macaca fascicularis; parameters: unit not given here; settings: in vivo, 0.375 h
Pons [35] = assay: Drug uptake in anesthetized cynomolgus monkey brain pons after 145 mins postinjection; type: ADME, organism-based, Macaca fascicularis; settings: in vivo
Caudate [36] = assay: Drug uptake in anesthetized cynomolgus monkey brain caudate after 225 mins postinjection; type: ADME, organism-based, Macaca fascicularis, Caudate nucleus; settings: in vivo, 3.75 h
Pons [37] = assay: Drug uptake in anesthetized cynomolgus monkey brain pons after 225 mins postinjection; type: ADME, organism-based, Macaca fascicularis; settings: in vivo, 3.75 h
Pons [38] = assay: Drug uptake in anesthetized cynomolgus monkey brain pons after 235 mins postinjection; type: ADME, organism-based, Macaca fascicularis; settings: in vivo
Thalamus [39] = assay: Drug uptake in anesthetized cynomolgus monkey brain thalamus after 4.5 mins postinjection; type: ADME, organism-based, Macaca fascicularis; parameters: unit not given here; settings: in vivo, 0.075 h
Pons [40] = assay: Drug uptake in anesthetized cynomolgus monkey brain pons after 195 mins postinjection; type: ADME, organism-based, Macaca fascicularis; settings: in vivo, 3.25 h
Pons [41] = assay: Drug uptake in anesthetized cynomolgus monkey brain pons after 22.5 mins postinjection; type: ADME, organism-based, Macaca fascicularis; settings: in vivo, 0.375 h
[42] = Ratio of drug uptake in medulla to cerebellum in anesthetized cynomolgus monkey after 35 mins postinjection; type: ADME, organism-based, Macaca fascicularis; settings: in vivo
Thalamus [43] = assay: Drug uptake in anesthetized cynomolgus monkey brain thalamus after 55 mins postinjection; type: ADME, organism-based, Macaca fascicularis; parameters: unit not given here; settings: in vivo
Midbrain [44] = assay: Drug uptake in anesthetized cynomolgus monkey brain midbrain after 75 mins postinjection; type: ADME, organism-based, Macaca fascicularis; parameters: unit not given here; settings: in vivo, 1.25 h
Pons [45] = assay: Drug uptake in anesthetized cynomolgus monkey brain pons after 165 mins postinjection; type: ADME, organism-based, Macaca fascicularis; settings: in vivo, 2.75 h
Pons [46] = assay: Drug uptake in anesthetized cynomolgus monkey brain pons after 215 mins postinjection; type: ADME, organism-based, Macaca fascicularis; settings: in vivo
[47] = Drug uptake in anesthetized cynomolgus monkey brain cerebellum after 225 mins postinjection; type: ADME, organism-based, Macaca fascicularis; settings: in vivo, 3.75 h
Medulla [48] = assay: Drug uptake in anesthetized cynomolgus monkey brain medulla after 22.5 mins postinjection; type: ADME, organism-based, Macaca fascicularis; settings: in vivo, 0.375 h
[49] = Drug uptake in anesthetized cynomolgus monkey brain occipital lobe after 155 mins postinjection; type: ADME, organism-based, Macaca fascicularis; settings: in vivo
Putamen [50] = assay: Drug uptake in anesthetized cynomolgus monkey brain putamen after 165 mins postinjection; type: ADME, organism-based, Macaca fascicularis; settings: in vivo, 2.75 h
Thalamus [51] = assay: Drug uptake in anesthetized cynomolgus monkey brain thalamus after 45 mins postinjection; type: ADME, organism-based, Macaca fascicularis; parameters: unit not given here; settings: in vivo, 0.75 h
Midbrain [52] = assay: Drug uptake in anesthetized cynomolgus monkey brain midbrain after 15.5 mins postinjection; type: ADME, organism-based, Macaca fascicularis; parameters: unit not given here; settings: in vivo
Midbrain [53] = assay: Drug uptake in anesthetized cynomolgus monkey brain midbrain after 215 mins postinjection; type: ADME, organism-based, Macaca fascicularis; settings: in vivo
[54] = Ratio of drug uptake in putamen to cerebellum in anesthetized cynomolgus monkey after 9.5 mins postinjection; type: ADME, organism-based, Macaca fascicularis; settings: in vivo
Thalamus [55] = assay: Drug uptake in anesthetized cynomolgus monkey brain thalamus after 85 mins postinjection; type: ADME, organism-based, Macaca fascicularis; parameters: unit not given here; settings: in vivo
[56] = Drug uptake in anesthetized cynomolgus monkey brain frontal lobe after 165 mins postinjection; type: ADME, organism-based, Macaca fascicularis; settings: in vivo, 2.75 h
[57] = Ratio of drug uptake in occipital lobe to cerebellum in anesthetized cynomolgus monkey after 175 mins postinjection; type: ADME, organism-based, Macaca fascicularis; settings: in vivo

SMILES: O=C(OCC[18F])C1C2CCC(CC1c1ccc(/C=C\I)cc1)N2 (stereo not given)
- Drug uptake (Thalamus [1]): 1.7
- Drug uptake (Midbrain [2]): 1.74
- Drug uptake (Midbrain [3]): 4.01
- Drug uptake (Thalamus [4]): 3.99
- Drug uptake (Medulla [5]): 3.78
- Ratio [6]: 2.3
- Drug uptake (Midbrain [7]): 4.64
- Drug uptake (Pons [8]): 1.36
- Drug uptake (Medulla [9]): 3.52
- Drug uptake (Pons [10]): 3.09
- Drug uptake [11]: 0
- Drug uptake (Pons [12]): 0.36
- Drug uptake (Pons [13]): 3.56
- Drug uptake (Pons [14]): 0.8
- Drug uptake (Putamen [15]): 1.89
- Drug uptake (Pons [16]): 0.06
- Ratio [17]: 1.6
- Drug uptake (Thalamus [18]): 4.06
- Drug uptake [19]: 1.51
- Ratio [20]: 2.6
- Drug uptake (Caudate [21]): 0.29
- Drug uptake (Midbrain [22]): 4.62
- Drug uptake (Midbrain [23]): 2.2
- Drug uptake (Pons [24]): 2.99
- Drug uptake (Thalamus [25]): 3.97
- Ratio [26]: 1.4
- Drug uptake (Caudate [27]): 0
- Drug uptake (Medulla [28]): 0.94
- Drug uptake (Medulla [29]): 3.82
- Drug uptake (Medulla [30]): 3.01
- Drug uptake (Pons [31]): 2.17
- Drug uptake (Putamen [32]): 4.28
- Drug uptake (Midbrain [33]): 4.65
- Drug uptake (Putamen [34]): 3.13
- Drug uptake (Pons [35]): 3.51
- Drug uptake (Caudate [36]): 2.68
- Drug uptake (Pons [37]): 3.34
- Drug uptake (Pons [38]): 3.06
- Drug uptake (Thalamus [39]): 1.21
- Drug uptake (Pons [40]): 3.42
- Drug uptake (Pons [41]): 2.4
- Ratio [42]: 1.4
- Drug uptake (Thalamus [43]): 3.78
- Drug uptake (Midbrain [44]): 4.41
- Drug uptake (Pons [45]): 3.54
- Drug uptake (Pons [46]): 3.39
- Drug uptake [47]: 1.08
- Drug uptake (Medulla [48]): 3.09
- Drug uptake [49]: 2.02
- Drug uptake (Putamen [50]): 4.22
- Drug uptake (Thalamus [51]): 3.63
- Drug uptake (Midbrain [52]): 2.58
- Drug uptake (Midbrain [53]): 4.63

SMILES: O=C(OCC[18F])C1C2CCC(CC1c1cccc(/C=C\I)c1)N2 (stereo not given)
- Drug uptake (Thalamus [1]): 2.49
- Drug uptake (Midbrain [2]): 2.99
- Drug uptake (Midbrain [3]): 4.91
- Drug uptake (Thalamus [4]): 3.33
- Drug uptake (Medulla [5]): 3.96
- Ratio [6]: 1.4
- Ratio [54]: 0.9
- Drug uptake (Pons [8]): 2.02
- Drug uptake (Medulla [9]): 2.78
- Drug uptake (Pons [10]): 3.34
- Drug uptake [11]: 0
- Drug uptake (Pons [12]): 0.44
- Drug uptake (Pons [13]): 2.76
- Drug uptake (Pons [14]): 1.2
- Drug uptake (Thalamus [55]): 4.04
- Drug uptake (Putamen [15]): 2.54
- Drug uptake (Pons [16]): 0.09
- Ratio [17]: 1.2
- Drug uptake (Thalamus [18]): 3.58
- Drug uptake [19]: 1.39
- Drug uptake (Caudate [21]): 0.37
- Drug uptake (Midbrain [22]): 4.08
- Drug uptake (Midbrain [23]): 3.52
- Drug uptake (Pons [24]): 3.27
- Drug uptake (Thalamus [25]): 3.03
- Drug uptake (Caudate [27]): 0
- Drug uptake (Medulla [28]): 1.08
- Drug uptake (Medulla [29]): 3.58
- Drug uptake [56]: 1.81
- Drug uptake (Medulla [30]): 3.61
- Drug uptake (Pons [31]): 2.91
- Drug uptake (Putamen [32]): 4.28
- Drug uptake (Midbrain [33]): 3.85
- Drug uptake (Putamen [34]): 3.96
- Drug uptake (Pons [35]): 2.57
- Drug uptake (Caudate [36]): 2.02
- Drug uptake (Pons [37]): 2.03
- Drug uptake (Pons [38]): 1.97
- Drug uptake (Thalamus [39]): 1.57
- Drug uptake (Pons [41]): 3.05
- Drug uptake (Thalamus [43]): 4.29
- Drug uptake (Midbrain [44]): 4.76
- Drug uptake (Pons [45]): 2.46
- Drug uptake (Pons [46]): 2.08
- Drug uptake [47]: 1.26
- Drug uptake (Medulla [48]): 3.83
- Drug uptake [49]: 1.63
- Ratio [57]: 1
- Drug uptake (Putamen [50]): 3.02
- Drug uptake (Thalamus [51]): 4.3
- Drug uptake (Midbrain [52]): 4.07
- Drug uptake (Midbrain [53]): 3.12
